Tests used:
[1] = aqueous preparation; reported in US 2010075853 A; cited from earlier work
[2] = Heat storage experiment of the preparation product; assay type: physicochemical
Method: In the preparation of solid preparations containing topramezone, the crystalline form I of the topramezone sodium salt can be better granulated compared with the anhydrous substance of the topramezone sodium salt. […] However, the preparation of type I topramezone sodium salt hydrate requires standing in water or a water-containing mixed solvent at −10° C.-15° C. for 10-48 h to complete the crystallization.

[3] = Product performance comparison: storage of preparation samples at 54° C. for 2 weeks; assay type: physicochemical; details: stored at 54° C. for 2 weeks; characters before and after storage compared
Method: The preparation samples 1, 2, 3, 4, 5, 6, 7, 8, 9, 10, 11 and 12 prepared in Application examples 1-4 are stored at 54° C. for 2 weeks, respectively. The character changes of each sample before and after storage are compared.

## Cc1c(C(=O)c2cnn(C)c2[O-])ccc(S(C)(=O)=O)c1C1=NOCC1.[Na+] [topramezone sodium salt]
[1]
  Activity compared with topramezone acid: equivalent to or even higher than that of topramezone acid

## Cc1c(C(=O)c2cnn(C)c2[O-])ccc(S(C)(=O)=O)c1C1=NOCC1.Cc1c(C(=O)c2cnn(C)c2[O-])ccc(S(C)(=O)=O)c1C1=NOCC1.O.O.O.O.O.[Na+].[Na+] [type I topramezone sodium salt hydrate, 2.5 water topramezone sodium salt hydrate]
[2]
  Stability of the preparation in heat storage, compared with the preparation based on the anhydrous substance: more stable

## type II crystalline topramezone sodium salt hydrate
[3]
  Character changes: stable after storage

Source: US12162869B2, “Type II crystalline topramezone sodium salt hydrate, preparation method therefor and use thereof” (Rotam Agrochem International Company Limited, priority 2022, dated 2024)
